Experimental data: PubChem BioAssay AID1253 (Columbia University Molecular Screening Center, 2008)
The source made the active and inactive calls.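 How the source made its calls: active means IC50 under 10 µM in the follow-up dose response; inactive means IC50 10 µM or more, or under 40% single-dose inhibition.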

Molecular target: Tyrosine-protein phosphatase non-receptor type 22 (Homo sapiens) (UniProt Q9Y2R2)
Test: LYP phosphatase inhibitors, confirmation, biochemical, DiFMUP fluorescence, retest and dose response (AID 1253)
Details: recombinant LYP; for inhibition: at 10 µM, stronger effect = higher value

Chain of Tyrosine-protein phosphatase non-receptor type 22 (Homo sapiens) (Q9Y2R2 whole entry, looked up): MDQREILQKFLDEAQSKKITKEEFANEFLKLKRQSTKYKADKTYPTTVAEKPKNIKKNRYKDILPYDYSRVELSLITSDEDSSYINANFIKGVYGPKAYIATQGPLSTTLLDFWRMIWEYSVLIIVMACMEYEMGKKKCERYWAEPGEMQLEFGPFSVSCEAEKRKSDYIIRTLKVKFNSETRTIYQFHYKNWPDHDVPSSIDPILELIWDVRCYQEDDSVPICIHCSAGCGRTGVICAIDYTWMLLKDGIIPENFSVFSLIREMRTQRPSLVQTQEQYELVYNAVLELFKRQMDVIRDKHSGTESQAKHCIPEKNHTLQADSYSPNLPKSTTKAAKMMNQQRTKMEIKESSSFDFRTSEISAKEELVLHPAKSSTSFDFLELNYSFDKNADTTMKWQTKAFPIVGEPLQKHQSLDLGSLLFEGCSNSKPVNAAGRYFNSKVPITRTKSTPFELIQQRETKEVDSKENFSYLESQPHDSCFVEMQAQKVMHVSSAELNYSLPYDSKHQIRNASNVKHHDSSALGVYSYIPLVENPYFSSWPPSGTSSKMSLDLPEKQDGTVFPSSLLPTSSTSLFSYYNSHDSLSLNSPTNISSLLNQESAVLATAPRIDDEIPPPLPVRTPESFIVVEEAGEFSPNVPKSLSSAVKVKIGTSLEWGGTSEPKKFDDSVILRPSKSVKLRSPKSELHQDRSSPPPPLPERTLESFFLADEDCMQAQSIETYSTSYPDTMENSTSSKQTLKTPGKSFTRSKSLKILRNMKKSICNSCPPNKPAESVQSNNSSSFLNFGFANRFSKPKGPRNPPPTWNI

| Compound | inhibition | IC50 |
| --- | --- | --- |
| O=C(COc1ccccc1C(=O)N/N=C\c1ccc(O)c(O)c1)N/N=C/c1ccc(O)c(O)c1 | inactive | – |
| CCC(C)n1c(C)nc2c(c1=O)c1nc3ccccc3nc1n2CCC1=CCCCC1 (stereo unspecified) | inactive | – |
| CCOc1ccc(-c2csc(N)c2C(=O)OC)cc1 | inactive | – |
| O=C(Nc1cnc2ccccc2c1)C1COc2ccccc2O1 (stereo unspecified) | inactive | – |
| O=C(N/N=C/C=C/c1ccccc1)c1cc2c(ccc3ccccc32)o1 | inactive | – |
| COCCn1c(Cc2ccccc2)nnc1SCc1nc2ccccc2c(=O)[nH]1 | inactive | – |
| CC1CCN(S(=O)(=O)c2ccc(NN=C(C#N)C#N)cc2)CC1 | inactive | – |
| Cc1ccc(CSc2nnc(-c3ccccc3N)c(=O)[nH]2)cc1 | inactive | – |
| Cc1ccc2nc(NC(=S)NC(=O)c3cccs3)sc2c1 | inactive | – |
| c1ccc(-c2nccc(-c3ccc(-n4cnc5ccccc54)cc3)n2)nc1 | inactive | – |
| O=C(c1ccc(Cl)cc1)c1cnc(-c2ccc(Cl)cc2)s1 | inactive | – |
| CC(=O)NC1CC2CCCC(C1)N2C(=O)Nc1ccccc1 (stereo unspecified) | inactive | – |
| CCOc1ccc(N=C2NC(=O)S/C2=C\c2ccc(Cl)cc2)cc1 | inactive | – |
| CC(C)C(CCNC(=O)CC(Cc1ccccc1)c1ccco1)c1ccco1 (stereo unspecified) | inactive | – |
| COc1cccc(/C=N/NC(=O)c2ccc(-c3ccccc3)cc2)c1O | inactive | – |
| CCOC(=O)c1c2ccc(OCC(=O)N/N=C/c3ccc(C)cc3)cc2n2ccccc12 | inactive | – |
| C=CCNC(=S)NNC(=O)c1cccn(Cc2ccc(Cl)cc2Cl)c1=O | inactive | – |
| COc1ccc2nc(SCc3cnc(C)nc3N)[nH]c2c1 | inactive | – |
| O=C(Cc1cnn(-c2ccccc2)c1)c1ccc(O)c(O)c1O | inactive | – |
| Cc1ccc2c(Cl)cc(Cl)c(OCC(=O)NCc3ccco3)c2n1 | inactive | – |
| S=c1[nH]nc(COc2ccccc2)n1/N=C/C(Cl)=C/c1ccccc1 | inactive | – |
| Brc1ccc2nc(CSc3ncn[nH]3)cn2c1 | inactive | – |
| CC(=O)Nc1ccc(NC(=O)c2ccccc2CC[N+](=O)[O-])cc1 | inactive | – |
| Cc1nn(-c2ccccc2)c(Cl)c1/C=N/Nc1ccc(S(=O)(=O)Nc2ccccc2C(=O)O)cc1[N+](=O)[O-] | inactive | – |

| Compound | inhibition | IC50 |
| --- | --- | --- |
| O=S(=O)(Nc1nc(-c2sccc2Cl)cs1)c1cc(Cl)ccc1Cl | inactive | – |
| Cc1nc(NC(=O)CC(C)C)sc1-c1csc(Nc2ccc(Cl)cc2)n1 | inactive | – |
| COc1ccc(-n2nnnc2SCC(=O)c2ccc(O)c(O)c2)cc1 | inactive | – |
| O=C(OCC1OC(n2cnc3c(N(C(=O)c4ccccc4)C(=O)c4ccccc4)ncnc32)C(O)C1F)c1ccccc1 (stereo unspecified) | inactive | – |
| CC(C)CNc1nnnc2c1sc1nc(N3CCOCC3)c3c(c12)CC(C)(C)SC3 | inactive | – |
| Cc1cc([N+](=O)[O-])nn1CC(=O)NNC(=S)Nc1ccc([N+](=O)[O-])cc1 | inactive | – |
| COc1cccc(-c2nnc(NC(=O)c3ccc(S(=O)(=O)N(CC(C)C)CC(C)C)cc3)o2)c1 | inactive | – |
| O=C(NNC(=O)c1ccc2ccccc2c1O)c1ccccc1Cl | inactive | – |
| Nc1c(C(=O)Nc2nc3ccccc3s2)sc2nc(-c3cccs3)ccc12 | – | 1240 nM |
| COc1c(N2CCN(C(=S)NCc3ccccc3)C(C)C2)c(F)cc2c(=O)c(C(=O)O)cn(C3CC3)c12 (stereo unspecified) | inactive | – |
| O=C(Nc1nnc(COc2ccc(Cl)cc2)s1)c1ccc([N+](=O)[O-])cc1 | inactive | – |
| O=C1NC(=O)C(=Cc2cn(CCOc3ccc4c(c3)OCO4)c3ccccc23)C(=O)N1 | inactive | – |
| N#Cc1ccccc1CN1C(=O)S/C(=C/c2cccn2-c2cccc(C(=O)O)c2)C1=O | inactive | – |
| CCc1ccc2nc(NC(=O)c3ccc4c(=O)[nH]c(CN5CCOCC5)nc4c3)sc2c1 | inactive | – |
| CNC(=S)NNC(=O)c1cccn(Cc2cccc(Cl)c2)c1=O | inactive | – |
| COc1cc(OC)cc(C(=O)Nc2ccccc2C(=O)N2CCCC2)c1 | inactive | – |
| CCCC1COC(Cn2cncn2)(c2ccc(Cl)cc2Cl)O1 (stereo unspecified) | inactive | – |
| CC1CCc2c(sc(NC(=O)c3ccc(Cn4cc([N+](=O)[O-])cn4)o3)c2C#N)C1 (stereo unspecified) | inactive | – |
| O=C(CCC(=O)OC(C(=O)c1ccccc1)c1ccccc1)Nc1ccccc1 (stereo unspecified) | inactive | – |
| Cc1ccc(-c2nnc(CSc3nnc(COc4cccc5ccccc45)n3-c3ccccc3)o2)cc1 | inactive | – |
| CCCCCCCCC/C(=N\O)c1ccccn1 | inactive | – |
| Cc1cc(SCC(=O)N/N=C/c2ccc(O)c(O)c2O)c(C)cc1Br | inactive | – |
| Cc1ccc(CNC(=O)c2ccccc2N)cc1 | inactive | – |
| CCn1nc(C(=O)OCC(=O)c2cc(C)n(Cc3cccs3)c2C)c2ccccc2c1=O | inactive | – |

| Compound | inhibition | IC50 |
| --- | --- | --- |
| Cc1cc2c(cc1C)N(C(=O)CSC1=NCCS1)C(C)(C)c1ssc(=S)c1-2 | inactive | – |
| Clc1ccc(C2=C3CCCCn4c(-c5ccccc5)c[n+](c43)C2)cc1 | inactive | – |
| CC(=O)Nc1nonc1NC(=O)c1ccc(C(C)(C)C)cc1 | inactive | – |
| O=C(NNC(=O)c1cc2cc3ccccc3nc2s1)c1cccc(Cl)c1 | inactive | – |
| CCN(CC)CCCNC(=O)c1c(O)c2ccccc2n(Cc2ccccc2)c1=O | inactive | – |
| Cc1cc(-c2c(C)[nH]n(-c3ccc(Cl)cc3)c2=O)n[nH]1 | – | > 10000 nM (inactive) |
| Cc1cc(C)n2c(SCC(=O)N3CCN(S(=O)(=O)c4ccc(Cl)cc4)CC3)nnc2n1 | inactive | – |
| O=C(Nc1ccc2oc(-c3ccc(Cl)c(Cl)c3)nc2c1)c1ncn[nH]1 | inactive | – |
| O=C(N/N=C/c1ccc2ccccc2c1)c1ccc(COc2ccc3c(c2)CCC3)o1 | inactive | – |
| C=CCNC(=S)NNC(=O)c1cccn(Cc2cccc(Cl)c2)c1=O | inactive | – |
| COc1ccc(S(=O)(=O)Nc2ccc(S(=O)(=O)N3CCCCC3)cc2)cc1 | inactive | – |
| O=C(Nc1ccc2oc(-c3cccc4ccccc34)nc2c1)c1ncn[nH]1 | inactive | – |
| C=CCNC(=S)NNC(=O)c1cccn(Cc2ccc(Cl)c(Cl)c2)c1=O | inactive | – |
| O=C(N/N=C/c1ccncc1)c1cc([N+](=O)[O-])cc([N+](=O)[O-])c1O | inactive | – |
| CCN(CC(=O)NC(=O)NC1CCCCC1)Cc1nc2ccccc2c(=O)[nH]1 | inactive | – |
| Cc1ccc(-n2nc3c4c(cccc4c2=O)-c2ccccc2-3)cc1 | inactive | – |
| COc1cc(-c2nnc(SCc3cc(=O)oc4cc(O)c(O)cc34)o2)cc(OC)c1OC | – | 2600 nM |
| CNC(=S)NNC(=O)c1cccn(Cc2ccc(Cl)c(Cl)c2)c1=O | inactive | – |
| O=C(N/N=C/c1cccc([N+](=O)[O-])c1)c1cc2c(ccc3ccccc32)o1 | inactive | – |
| Cc1ccc(CSC2=Nc3ccccc3C3=NC(CC(=O)NCc4ccco4)C(=O)N23)cc1 (stereo unspecified) | inactive | – |
| Cc1cc(C)cc(-n2c3nc4ccccc4nc3c3c(=O)n(Cc4ccco4)cnc32)c1 | inactive | – |
| O=[N+]([O-])c1ccc(N2CCN(S(=O)(=O)c3ccc(Cl)cc3)CC2)cc1NCc1cccnc1 | inactive | – |
| CN1CCn2c1nc(N1CCOCC1)nc2=O | inactive | – |
